Values joined by “and” are separate entries in the source; they are usually repeats but may differ in a detail not shown here. Identical values can stand only once.
Columns and labels:
[1] = Liquid; for mass density: 101.33 kPa, Vibrating tube method; for viscosity / speed of sound: 101 kPa; for viscosity: Capillary tube (Ostwald / Ubbelohde) method; for speed of sound: Frequency=2 MHz, Pulse-echo method
[2] = xn = mol fraction of the nth substance listed; settings: Liquid; for viscosity / speed of sound: 101 kPa; for viscosity: Capillary tube (Ostwald / Ubbelohde) method; for speed of sound: Frequency=2 MHz, Pulse-echo method; for mass density: 101.33 kPa, Vibrating tube method

ClC(Cl)C(Cl)Cl [1,1,2,2-tetrachloroethane]
[1]
Settings | mass density [kg/m3] | speed of sound [m/s] | viscosity [mPa·s]
298.15 K | 1586.8 | – | –
303.15 K | 1579.6 | 1134.7 | 1.456
308.15 K | 1570.6 | 1115.5 | 1.354
313.15 K | 1563.7 | 1095.5 | 1.261

ClC=C(Cl)Cl [trichloroethene] + N#CCc1ccccc1
[2], x2 = 0
Settings | mass density [kg/m3] | speed of sound [m/s] | viscosity [mPa·s]
303.15 K | 1447.5 | 1014.7 | 0.5172
308.15 K | 1437.8 | 993.7 | 0.4992
313.15 K | 1430.4 | 982 | 0.4833

ClCCCl [1,2-dichloroethane]
[1]
Settings | mass density [kg/m3] | speed of sound [m/s] | viscosity [mPa·s]
298.15 K | 1246.7 | – | 0.776
303.15 K | 1238.7 | 1174 | 0.7237
308.15 K | 1230.5 | 1164.8 | 0.6737
313.15 K | 1223.7 | 1153.5 | 0.6419

ClC(Cl)=C(Cl)Cl [tetrachloroethene] + N#CCc1ccccc1
[2], x2 = 0
Settings | mass density [kg/m3] | speed of sound [m/s] | viscosity [mPa·s]
303.15 K | 1607.2 | 1028 | 0.7971
308.15 K | 1597.9 | 1014 | 0.7657
313.15 K | 1590.6 | 996.6 | 0.7395

ClC(Cl)C(Cl)Cl [1,1,2,2-tetrachloroethane] + N#CCc1ccccc1
[2], x2 = 0
Settings | mass density [kg/m3] | speed of sound [m/s] | viscosity [mPa·s]
303.15 K | 1579.6 | 1134.7 | 1.456
308.15 K | 1570.6 | 1115.5 | 1.354
313.15 K | 1563.7 | 1095.5 | 1.261

ClCC(Cl)Cl [1,1,2-trichloroethane]
[1]
Settings | mass density [kg/m3] | speed of sound [m/s] | viscosity [mPa·s]
298.15 K | – | – | 1.105
303.15 K | 1425 | 1129.2 | 1.019
308.15 K | 1416.1 | 1115.9 | 0.9483
313.15 K | 1409.6 | 1096.1 | 0.8888

ClC=C(Cl)Cl [trichloroethene]
[1]
Settings | mass density [kg/m3] | speed of sound [m/s] | viscosity [mPa·s]
298.15 K | 1455.9 | – | 0.527
303.15 K | 1447.5 | 1014.7 | 0.5172
308.15 K | 1437.8 | 993.7 | 0.4992
313.15 K | 1430.4 | 982 | 0.4833

ClCCCl [1,2-dichloroethane] + N#CCc1ccccc1
[2], x2 = 0
Settings | mass density [kg/m3] | speed of sound [m/s] | viscosity [mPa·s]
303.15 K | 1238.7 | 1174 | 0.7237
308.15 K | 1230.5 | 1164.8 | 0.6737
313.15 K | 1223.7 | 1153.5 | 0.6419

N#CCc1ccccc1 [benzeneacetonitrile]
[1]
Settings | mass density | speed of sound [m/s] | viscosity [mPa·s]
303.15 K | 1008.83 kg/m3 and 1008.8 kg/m3 | 1519.2 | 1.761
308.15 K | 1004.1 kg/m3 | 1512.9 | 1.602
313.15 K | 999.5 kg/m3 | 1503.4 | 1.489

ClC(Cl)=C(Cl)Cl [tetrachloroethene]
[1]
Settings | mass density [kg/m3] | speed of sound [m/s] | viscosity [mPa·s]
298.15 K | 1614.8 | – | 0.847
303.15 K | 1607.2 | 1028 | 0.7971
308.15 K | 1597.9 | 1014 | 0.7657
313.15 K | 1590.6 | 996.6 | 0.7395

N#CCc1ccccc1 [benzeneacetonitrile] + ClCC(Cl)Cl
[2], x1 = 1
Settings | mass density [kg/m3] | speed of sound [m/s] | viscosity [mPa·s]
303.15 K | 1008.8 | 1519.2 | 1.761
308.15 K | 1004.1 | 1512.9 | 1.602
313.15 K | 999.5 | 1503.4 | 1.489
